Data published in patent US20240207263A1, “SELECTIVE MODULATORS OF ATAXIA TELA[…] (ATM) KINASE AND USES THEREOF” (priority 2021, published 2024).
pIC50: −log10 of the molar value.

Target: ATM (Homo sapiens (Human), UniProt Q13315)
Assay: biochemical
Format: biochemical
Conditions: read-out: ATM IC50
From the text: Assay a): ATM Biochemical Potency
Data was collected by Caliper.

ATM, sequence (Q13315 whole entry, looked up): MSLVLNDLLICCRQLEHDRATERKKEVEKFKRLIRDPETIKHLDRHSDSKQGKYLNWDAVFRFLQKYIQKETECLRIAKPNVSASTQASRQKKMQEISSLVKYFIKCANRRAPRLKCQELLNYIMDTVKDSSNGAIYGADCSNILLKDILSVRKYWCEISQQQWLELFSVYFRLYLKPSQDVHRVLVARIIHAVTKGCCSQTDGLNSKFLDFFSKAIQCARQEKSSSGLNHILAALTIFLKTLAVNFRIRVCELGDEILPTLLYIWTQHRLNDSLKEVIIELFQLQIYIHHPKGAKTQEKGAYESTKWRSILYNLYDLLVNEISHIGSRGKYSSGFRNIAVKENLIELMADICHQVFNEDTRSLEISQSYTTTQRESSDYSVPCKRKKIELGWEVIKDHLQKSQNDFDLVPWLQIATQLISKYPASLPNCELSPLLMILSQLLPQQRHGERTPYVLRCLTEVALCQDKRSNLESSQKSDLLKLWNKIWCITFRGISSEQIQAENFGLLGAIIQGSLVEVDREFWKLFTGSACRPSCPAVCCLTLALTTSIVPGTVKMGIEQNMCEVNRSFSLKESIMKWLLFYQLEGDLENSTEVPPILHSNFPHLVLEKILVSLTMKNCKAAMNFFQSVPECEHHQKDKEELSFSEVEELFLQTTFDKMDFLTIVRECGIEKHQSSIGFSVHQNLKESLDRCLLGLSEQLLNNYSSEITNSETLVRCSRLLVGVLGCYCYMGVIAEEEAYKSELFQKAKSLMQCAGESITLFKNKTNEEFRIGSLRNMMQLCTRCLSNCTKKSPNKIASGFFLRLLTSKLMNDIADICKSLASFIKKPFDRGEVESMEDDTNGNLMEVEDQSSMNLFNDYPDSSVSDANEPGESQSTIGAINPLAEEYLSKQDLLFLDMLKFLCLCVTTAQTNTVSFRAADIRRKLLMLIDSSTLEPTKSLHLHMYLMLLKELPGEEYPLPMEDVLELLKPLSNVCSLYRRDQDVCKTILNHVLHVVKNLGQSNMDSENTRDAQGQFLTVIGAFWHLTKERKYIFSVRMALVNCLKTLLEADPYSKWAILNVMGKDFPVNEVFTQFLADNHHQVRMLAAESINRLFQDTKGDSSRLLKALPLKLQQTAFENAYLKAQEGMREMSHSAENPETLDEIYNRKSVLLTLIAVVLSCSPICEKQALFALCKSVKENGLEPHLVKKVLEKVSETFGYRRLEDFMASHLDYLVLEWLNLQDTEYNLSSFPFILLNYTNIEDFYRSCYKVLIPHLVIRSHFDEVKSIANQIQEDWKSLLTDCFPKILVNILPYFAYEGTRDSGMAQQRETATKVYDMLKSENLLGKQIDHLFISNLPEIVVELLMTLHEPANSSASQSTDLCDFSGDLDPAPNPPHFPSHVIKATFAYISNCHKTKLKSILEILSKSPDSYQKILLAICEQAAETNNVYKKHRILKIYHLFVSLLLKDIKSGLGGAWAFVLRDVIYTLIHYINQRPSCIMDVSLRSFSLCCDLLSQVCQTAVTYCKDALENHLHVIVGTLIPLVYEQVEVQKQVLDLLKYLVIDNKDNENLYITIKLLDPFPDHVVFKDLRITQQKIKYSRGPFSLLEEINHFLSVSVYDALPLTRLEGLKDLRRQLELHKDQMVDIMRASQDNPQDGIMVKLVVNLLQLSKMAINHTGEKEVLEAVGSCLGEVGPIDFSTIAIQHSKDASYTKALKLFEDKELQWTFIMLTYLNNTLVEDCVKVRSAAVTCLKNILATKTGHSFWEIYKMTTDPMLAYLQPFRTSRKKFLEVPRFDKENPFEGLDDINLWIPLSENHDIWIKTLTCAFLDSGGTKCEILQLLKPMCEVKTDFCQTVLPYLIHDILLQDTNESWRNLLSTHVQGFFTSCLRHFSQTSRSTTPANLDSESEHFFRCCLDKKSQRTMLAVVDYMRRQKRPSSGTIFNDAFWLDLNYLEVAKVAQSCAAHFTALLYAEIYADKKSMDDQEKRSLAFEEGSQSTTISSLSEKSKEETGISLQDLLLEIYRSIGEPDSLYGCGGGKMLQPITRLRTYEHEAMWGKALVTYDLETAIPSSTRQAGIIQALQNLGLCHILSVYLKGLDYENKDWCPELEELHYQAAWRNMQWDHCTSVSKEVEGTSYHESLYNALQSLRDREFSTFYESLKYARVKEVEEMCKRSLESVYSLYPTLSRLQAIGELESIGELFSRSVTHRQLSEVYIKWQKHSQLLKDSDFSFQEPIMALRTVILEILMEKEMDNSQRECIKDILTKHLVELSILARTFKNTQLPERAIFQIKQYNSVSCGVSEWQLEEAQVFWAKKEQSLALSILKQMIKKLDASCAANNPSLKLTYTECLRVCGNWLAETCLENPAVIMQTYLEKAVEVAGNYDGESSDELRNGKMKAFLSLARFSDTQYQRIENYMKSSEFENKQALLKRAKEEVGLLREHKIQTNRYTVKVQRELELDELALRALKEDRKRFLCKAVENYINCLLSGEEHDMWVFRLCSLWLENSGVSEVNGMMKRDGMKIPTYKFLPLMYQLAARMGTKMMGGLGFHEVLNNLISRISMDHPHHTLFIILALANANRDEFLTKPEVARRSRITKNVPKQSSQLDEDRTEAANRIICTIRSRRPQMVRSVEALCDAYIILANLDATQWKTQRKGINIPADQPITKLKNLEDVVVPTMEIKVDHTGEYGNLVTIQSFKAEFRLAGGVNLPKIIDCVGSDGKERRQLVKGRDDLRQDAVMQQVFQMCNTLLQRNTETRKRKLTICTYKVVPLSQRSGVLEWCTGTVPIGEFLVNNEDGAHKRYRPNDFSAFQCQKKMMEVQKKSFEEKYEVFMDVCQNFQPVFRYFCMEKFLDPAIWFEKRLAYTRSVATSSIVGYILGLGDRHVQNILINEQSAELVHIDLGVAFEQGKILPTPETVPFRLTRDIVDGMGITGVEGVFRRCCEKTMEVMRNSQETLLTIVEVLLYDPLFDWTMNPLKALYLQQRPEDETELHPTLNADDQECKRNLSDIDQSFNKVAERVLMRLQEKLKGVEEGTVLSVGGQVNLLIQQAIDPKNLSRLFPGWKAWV

Compound	pIC50
CC(OCCN1CC2C(C1)C2(F)F)c1ccc(-c2ccc3nnc4c(c3c2)n(C(C)C)c(=O)n4C)cn1 (stereo in doubt) [Example 70, 8-(6-((1S)-1-(2-(6,6-difluoro-3-azabicyclo[3.1.0]hexan-3-yl)ethoxy)ethyl)pyridin-3-yl)-1-isopropyl-3-methyl-1H-imidazo[4,5-c]cinnolin-2(3H)-one]	6.53
CC(OCCN1CC2C(C1)C2(F)F)c1ccc(-c2ccc3nnc4c(c3c2)n(C(C)C)c(=O)n4C)cn1 (stereo in doubt) [Example 71, 8-(6-((1R)-1-(2-(6,6-difluoro-3-azabicyclo[3.1.0]hexan-3-yl)ethoxy)ethyl)pyridin-3-yl)-1-isopropyl-3-methyl-1H-imidazo[4,5-c]cinnolin-2(3H)-one]	8.03
CC(C)n1c(=O)n(C)c2nnc3ccc(-c4ccc(COCCN(C)C)nc4)cc3c21 [Example 2, 8-(6-((2-(dimethylamino)ethoxy)meth-yl)pyridin-3-yl)-1-isopropyl-3-methyl-1H-imidazo[4,5-c]cinnolin-2(3H)-one]	7.28
CC(C)n1c(=O)n(C)c2nnc3ccc(-c4ccc(COCCN5CCCCC5)nc4)cc3c21 [Example 3, 1-isopropyl-3-methyl-8-(6-((2-(piperidin-1-yl)ethoxy)methyl)pyridin-3-yl)-1H-imidazo[4,5-c]cinnolin-2(3H)-one]	7.44
CC(C)n1c(=O)n(C)c2nnc3ccc(-c4ccc(COCCN5CCCC5)nc4)cc3c21 [Example 4, 1-isopropyl-3-methyl-8-(6-((2-(pyrrolidin-1-yl)ethoxy)methyl)pyridin-3-yl)-1H-imidazo[4,5-c]cinnolin-2(3H)-one]	7.20
COCCOCc1ccc(-c2ccc3nnc4c(c3c2)n(C(C)C)c(=O)n4C)cn1 [Example 6, 1-isopropyl-8-(6-((2-methoxyethoxy)methyl)py-ridin-3-yl)-3-methyl-1H-imidazo[4,5-c]cinnolin-2(3H)-one]	6.33
CC(C)n1c(=O)n(C)c2nnc3ccc(-c4ccc(COC5CCN(C)CC5)nc4)cc3c21 [Example 7, 1-isopropyl-3-methyl-8-(6-(((1-methylpiperidin-4-yl)oxy)methyl)pyridin-3-yl)-1H-imidazo[4,5-c]cinnolin-2(3H)-one]	6.64
CC(C)n1c(=O)n(C)c2nnc3ccc(-c4ccc(COCCCN(C)C)nc4)cc3c21 [Example 8, 8-(6-((3-(dimethylamino)propoxy)methyl)pyridin-3-yl)-1-isopropyl-3-methyl-1H-imidazo[4,5-c]cinnolin-2(3H)-one]	7.01
CC(C)n1c(=O)n(C)c2nnc3ccc(-c4ccc(COCC5CCN(C)CC5)nc4)cc3c21 [Example 9, 1-isopropyl-3-methyl-8-(6-(((1-methylpiperidin-4-yl)methoxy)methyl)pyridin-3-yl)-1H-imidazo[4,5-c]cinnolin-2(3H)-one]	6.74
CC(C)n1c(=O)n(C)c2nnc3ccc(-c4ccc(COCC5CCCN5C)nc4)cc3c21 (centres unmarked) [Example 10, 1-isopropyl-3-methyl-8-(6-(((1-methylpyrrolidin-2-yl)methoxy)methyl)pyridin-3-yl)-1H-imidazo[4,5-c]cinnolin-2(3H)-one]	6.98
CC(C)n1c(=O)n(C)c2nnc3ccc(-c4ccc(COC5CCN(C)C5)nc4)cc3c21 (centres unmarked) [Example 11, 1-isopropyl-3-methyl-8-(6-(((1-methylpyrrolidin-3-yl)oxy)methyl)pyridin-3-yl)-1H-imidazo[4,5-c]cinnolin-2(3H)-one]	6.91
CC(C)n1c(=O)n(C)c2nnc3ccc(-c4ccc(COCCCN5CC6CC6C5)nc4)cc3c21 (centres unmarked) [Example 12, 8-(6-((3-(3-azabicyclo[3.1.0]hexan-3-yl)propoxy)methyl)pyridin-3-yl)-1-isopropyl-3-methyl-1H-imidazo[4,5-c]cinnolin-2(3H)-one]	7.33
CC(C)n1c(=O)n(C)c2nnc3ccc(-c4ccc(COC5CCCN(C)C5)nc4)cc3c21 (centres unmarked) [Example 13, 1-isopropyl-3-methyl-8-(6-(((1-methylpiperidin-3-yl)oxy)methyl)pyridin-3-yl)-1H-imidazo[4,5-c]cinnolin-2(3H)-one]	6.84
CC(C)n1c(=O)n(C)c2nnc3ccc(-c4ccc(COC5CC(N(C)C)C5)nc4)cc3c21 (centres unmarked) [Example 14, 8-(6-((3-(dimethylamino)cyclobuto-xy)methyl)pyridin-3-yl)-1-isopropyl-3-methyl-1H-imidazo[4,5-c]cinnolin-2(3H)-one]	7.17
CC(C)n1c(=O)n(C)c2nnc3ccc(-c4ccc(COC5CN(C)C5)nc4)cc3c21 [Example 15, 1-isopropyl-3-methyl-8-(6-(((1-methylazetidin-3-yl)oxy)methyl)pyridin-3-yl)-1H-imidazo[4,5-c]cinnolin-2(3H)-one]	6.87
CC(COCc1ccc(-c2ccc3nnc4c(c3c2)n(C(C)C)c(=O)n4C)cn1)N1CC2CC2C1 (centres unmarked) [Example 16, 8-(6-((2-(3-azabicyclo[3.1.0]hexan-3-yl)propoxy)methyl)pyridin-3-yl)-1-isopropyl-3-methyl-1H-imidazo[4,5-c]cinnolin-2(3H)-one]	6.70

Compound	pIC50
CC(C)n1c(=O)n(C)c2nnc3ccc(-c4ccc(COCC(C)(C)N5CC6CC6C5)nc4)cc3c21 (centres unmarked) [Example 17, 8-(6-((2-(3-azabicyclo[3.1.0]hexan-3-yl)-2-methylpropoxy)methyl)pyridin-3-yl)-1-isopropyl-3-methyl-1H-imidazo[4,5-c]cinnolin-2(3H)-one]	6.33
CC(C)n1c(=O)n(C)c2nnc3ccc(-c4ccc(COCC5(N6CC7CC7C6)CC5)nc4)cc3c21 (centres unmarked) [Example 18, 8-(6-(((1-(3-azabicyclo[3.1.0]hexan-3-yl)cyclopropyl)methoxy)methyl)pyridin-3-yl)-1-isopropyl-3-methyl-1H-imidazo[4,5-c]cinnolin-2(3H)-one]	6.42
CC(C)n1c(=O)n(C)c2nnc3ccc(-c4ccc(COCC5CCCN(C)C5)nc4)cc3c21 (centres unmarked) [Example 19, 1-isopropyl-3-methyl-8-(6-(((1-methylpiperidin-3-yl)methoxy)methyl)pyridin-3-yl)-1H-imidazo[4,5-c]cinnolin-2(3H)-one]	7.00
CC(C)n1c(=O)n(C)c2nnc3ccc(-c4ccc(COCC5CCN(C)C5)nc4)cc3c21 (centres unmarked) [Example 20, 1-isopropyl-3-methyl-8-(6-(((1-methylpyrrolidin-3-yl)methoxy)methyl)pyridin-3-yl)-1H-imidazo[4,5-c]cinnolin-2(3H)-one]	7.29
CC(CN1CC2CC2C1)OCc1ccc(-c2ccc3nnc4c(c3c2)n(C(C)C)c(=O)n4C)cn1 (centres unmarked) [Example 21, 8-(6-(((1-(3-azabicyclo[3.1.0]hexan-3-yl)propan-2-yl)oxy)methyl)pyridin-3-yl)-1-isopropyl-3-methyl-1H-imidazo[4,5-c]cinnolin-2(3H)-one]	6.86
CC(C)n1c(=O)n(C)c2nnc3ccc(-c4ccc(COC5(CN6CC7CC7C6)CC5)nc4)cc3c21 (centres unmarked) [Example 23, 8-(6-((1-(3-azabicyclo[3.1.0]hexan-3-ylmethyl)cyclopropoxy)methyl)pyridin-3-yl)-1-isopropyl-3-methyl-1H-imidazo[4,5-c]cinnolin-2(3H)-one]	6.38
CC(C)n1c(=O)n(C)c2nnc3ccc(-c4ccc(COCCN5CCC(C#N)CC5)nc4)cc3c21 [Example 24, 1-(2-((5-(1-isopropyl-3-methyl-2-oxo-2,3-dihydro-1H-imidazo[4,5-c]cinnolin-8-yl)pyridin-2-yl)methoxy)ethyl)pyiperidine-4-carbonitrile]	7.59
CC(C)n1c(=O)n(C)c2nnc3ccc(-c4ccc(COCCN5CCC(C#N)C5)nc4)cc3c21 (centres unmarked) [Example 25]	7.15
CC(C)n1c(=O)n(C)c2nnc3ccc(-c4ccc(COCCN5CCC6(CC6)C5)nc4)cc3c21 [Example 26, 8-(6-((2-(5-azaspiro[2.4]heptan-5-yl)ethoxy)methyl)pyridin-3-yl)-1-isopropyl-3-methyl-1H-imidazo[4,5-c]cinnolin-2(3H)-one]	7.85
COC1CCN(CCOCc2ccc(-c3ccc4nnc5c(c4c3)n(C(C)C)c(=O)n5C)cn2)CC1 [Example 27, 1-isopropyl-8-(6-((2-(4-methoxypiperidin-1-yl)ethoxy)methyl)pyridin-3-yl)-3-methyl-1H-imidazo[4,5-c]cinnolin-2(3H)-one]	7.04
CC(C)n1c(=O)n(C)c2nnc3ccc(-c4ccc(COCCN5CC[C@@H](F)C5)nc4)cc3c21 [Example 28, (R)-8-(6-((2-(3-fluoropyrrolidin-1-yl)ethoxy)methyl)pyridin-3-yl)-1-isopropyl-3-methyl-1H-imidazo[4,5-c]cinnolin-2(3H)-one]	7.09
CC(C)n1c(=O)n(C)c2nnc3ccc(-c4ccc(COCCN5CCC[C@@H]5C)nc4)cc3c21 [Example 29, (S)-1-isopropyl-3-methyl-8-(6-((2-(2-methylpyrrolidin-1-yl)ethoxy)methyl)pyridin-3-yl)-1H-imidazo[4,5-c]cinnolin-2(3H)-one]	7.17
CC(C)n1c(=O)n(C)c2nnc3ccc(-c4ccc(COCCN5CCC(F)(F)CC5)nc4)cc3c21 [Example 30, 8-(6-((2-(4,4-difluoropiperidin-1-yl)ethoxy)methyl)pyridin-3-yl)-1-isopropyl-3-methyl-1H-imidazo[4,5-c]cinnolin-2(3H)-one]	7.21
CC(C)n1c(=O)n(C)c2nnc3ccc(-c4ccc(COCCN5CCN(C)CC5)nc4)cc3c21 [Example 32, 1-isopropyl-3-methyl-8-(6-((2-(4-methylpiperazin-1-yl)ethoxy)methyl)pyridin-3-yl)-1H-imidazo[4,5-c]cinnolin-2(3H)-one]	6.52
CC(C)n1c(=O)n(C)c2nnc3ccc(-c4ccc(COCCN5CCOCC5)nc4)cc3c21 [Example 33, 1-isopropyl-3-methyl-8-(6-((2-morpholinoethoxy)methyl)pyridin-3-yl)-1H-imidazo[4,5-c]cinnolin-2(3H)-one]	7.24
CC(C)n1c(=O)n(C)c2nnc3ccc(-c4ccc(COCCN5CC[C@H](F)C5)nc4)cc3c21 [Example 34, (S)-8-(6-((2-(3-fluoropyrrolidin-1-yl)ethoxy)methyl)pyridin-3-yl)-1-isopropyl-3-methyl-1H-imidazo[4,5-c]cinnolin-2(3H)-one]	7.33
